Patent publication US20250381194A1, “METHODS FOR MITIGATING THE EFFECTS OF LOW-LEVEL BLASTS THROUGH PHOSPHODIESTERASE-5 INHIBITION” (University of Kentucky Research Foundation, priority 2024, published 2025)
“Also recorded” adds a separate entry of the source.

How the values were obtained:
[1] = tested on: rat brain microvascular endothelial cells; assay: Mitochondrial Network Analysis (MiNA) with mitotracker green in cell culture; assay type: cell-based; settings: sildenafil 1 μM in 1% DMSO overnight vs vehicle
Text: Mitochondrial Mechanisms Targeting mbTBI. […] Mitochondrial Network Analysis (MiNA) workflow in ImageJ was used to examine mitochondrial parameters.

PGC-1α = assay: Western blot for PGC-1α in cortical and hippocampal tissue seven days post-rmbTBI; assay type: in vivo, Sprague Dawley rats; settings: vs rmbTBI vehicle; for PGC-1α expression in cortex tissue: rmbTBI (2 blasts, 24 h interval)
Text: Blast Exposure. The MBD consists of a cylindrical steel tube, 12-inch internal diameter, separated into a 19-ft. expansion chamber and a 2.5-ft compression chamber. For these studies, compressed helium-driven mode was used to replicate military blast exposure. A 10-mil-thick (0.254 mm) biaxially-oriented polyethylene terephthalate (Mylar) membrane separates the two chambers. The Mylar membrane was actively ruptured by a 4-point blade affixed to a pneumatic cylinder to achieve desired static overpressure. The shock wave was recorded by face-on, reflected pressure (Kulite pitot-static pressure probe) and wall-mounted side-on static pressure sensors (Kulite). Data from each piezoresistive sensor was routed through sensor cables before being captured by the state-of-the-art TMX-18 (AstroNova™ Test & Measurement, 800 kHz sampling rate) and analyzed using AstroView. The rat subjects were secured in plastic netting to minimize but allow free body motion without neck flexion. The rat subjects were positioned 30 inches inside the tube and with lateral head exposure. An overpressure of 11 PSI was utilized, which is in the range where neurological disruption has been observed in operations involving breaching activity. In the studies underlying this example, Sprague Dawley rats were subjected to repeated blast exposure (2 blasts at 24 h interval). Tissue Isolation. For downstream western blot, whole brain homogenate was collected during brain capillary isolation and mixed with 10× RIPA buffer (150 mM NaCl, 1% Triton X-100, 0.5% sodium deoxycholate, 0.1% SDS, 50 mM Tris, pH 8.0) supplemented with protease inhibitors. The samples were snap-frozen in liquid nitrogen and stored at −80° C. until further use. Mitochondrial Biogenesis and Astrocyte Homeostasis. […] Expression of peroxisome proliferator-activated receptor gamma coactivator 1-alpha (PGC-1α), glial fibrillary acidic protein (GFAP), and β-actin was assessed in cortical tissue using western blot. Cortical tissue was extracted and probed seven days post-rmbTBI. Expression of PGC-1a and β-actin was also assessed using in the hippocampal tissue of subjects using western blot. Hippocampal tissue was extracted and probed seven-days post-rmbTBI.

GFAP = assay: Western blot for GFAP in cortical tissue seven days post-rmbTBI; assay type: in vivo, Sprague Dawley rats; settings: rmbTBI (2 blasts, 24 h interval), vs rmbTBI vehicle
Text: Blast Exposure. The MBD consists of a cylindrical steel tube, 12-inch internal diameter, separated into a 19-ft. expansion chamber and a 2.5-ft compression chamber. For these studies, compressed helium-driven mode was used to replicate military blast exposure. A 10-mil-thick (0.254 mm) biaxially-oriented polyethylene terephthalate (Mylar) membrane separates the two chambers. The Mylar membrane was actively ruptured by a 4-point blade affixed to a pneumatic cylinder to achieve desired static overpressure. The shock wave was recorded by face-on, reflected pressure (Kulite pitot-static pressure probe) and wall-mounted side-on static pressure sensors (Kulite). Data from each piezoresistive sensor was routed through sensor cables before being captured by the state-of-the-art TMX-18 (AstroNova™ Test & Measurement, 800 kHz sampling rate) and analyzed using AstroView. The rat subjects were secured in plastic netting to minimize but allow free body motion without neck flexion. The rat subjects were positioned 30 inches inside the tube and with lateral head exposure. […] Expression of peroxisome proliferator-activated receptor gamma coactivator 1-alpha (PGC-1α), glial fibrillary acidic protein (GFAP), and β-actin was assessed in cortical tissue using western blot. […] Expression of PGC-1a and β-actin was also assessed using in the hippocampal tissue of subjects using western blot. […]

TOM20 = assay: Capillary-specific mitochondrial content (TOM20 staining) seven days post-rmbTBI; assay type: in vivo, Sprague Dawley rats; settings: 20 mg/kg high dose daily to day seven, vs rmbTBI vehicle
Text: (§1) Blast Exposure. The MBD consists of a cylindrical steel tube, 12-inch internal diameter, separated into a 19-ft. expansion chamber and a 2.5-ft compression chamber. For these studies, compressed helium-driven mode was used to replicate military blast exposure. A 10-mil-thick (0.254 mm) biaxially-oriented polyethylene terephthalate (Mylar) membrane separates the two chambers. The Mylar membrane was actively ruptured by a 4-point blade affixed to a pneumatic cylinder to achieve desired static overpressure. The shock wave was recorded by face-on, reflected pressure (Kulite pitot-static pressure probe) and wall-mounted side-on static pressure sensors (Kulite). Data from each piezoresistive sensor was routed through sensor cables before being captured by the state-of-the-art TMX-18 (AstroNova™ Test & Measurement, 800 kHz sampling rate) and analyzed using AstroView. The rat subjects were secured in plastic netting to minimize but allow free body motion without neck flexion. The rat subjects were positioned 30 inches inside the tube and with lateral head exposure. An overpressure of 11 PSI was utilized, which is in the range where neurological disruption has been observed in operations involving breaching activity. In the studies underlying this example, Sprague Dawley rats were subjected to repeated blast exposure (2 blasts at 24 h interval). Capillary Isolation. […]

ZO-1 = assay: Tight junction integrity (ZO-1 immunostaining of cortical capillaries) seven days post-rmbTBI; assay type: in vivo, Sprague Dawley rats; settings: 20 mg/kg high dose daily to day seven, vs rmbTBI vehicle
Text: as §1

[2] = tested on: mitochondrial volume and tight junction proteins in isolated brain capillaries; assay: Correlation of capillary mitochondrial volume (OXPHOS) and ZO-1, chronic delayed sildenafil study; assay type: in vivo, Sprague Dawley rats; settings: 20 mg/kg oral gavage daily from 2 to 5 months post-blast; brain capillaries at 5 months post-rmbTBI
Experimental: Brain Capillary Isolation and Immunostaining. Half frozen rat brain from all groups was homogenized with isolation buffer (pH7.4 DPBS containing 5.5 mM glucose, 1 mM sodium pyruvate, and 1% BSA). The homogenate was centrifuged at 1000×g for 10 min at 4° C. to remove the supernatant. […] After evaluating the quality and concentration of capillary suspension under a bright field microscope, which may contain small amount of large vessel and cells, the isolated capillary sample was ready for the immunostaining analysis. […]
The expression of ZO-1 was quantified by measuring the mean fluorescence intensity by tracing the capillary under NIS-Elements analysis software. The total capillary area was measured by using NIS-Elements. For mitochondrial volume, the OXPHOS fluorescence from Z-stack images was quantified using Imaris (X64 9.6.1) using surface creation tool. […]

[3] = tested on: cerebral blood flow (CBF); assay: MRI arterial spin labeling of cerebral blood flow, chronic delayed sildenafil study; assay type: in vivo, Sprague Dawley rats; settings: 20 mg/kg daily, 2 and 4.5 months post-rmbTBI, between sham, rmbTBI+vehicle
Experimental: Animal Procedure. […] MRI (magnetic resonance imaging) was performed at 1.5 and 4.5 months post-blast. […] At the end of the experiment, rats were euthanized and the brain tissue was collected after transcardial perfusion with PBS (FIG. 24). One hemisphere of the brain was snap frozen with liquid nitrogen for brain capillary isolation while another hemisphere of the brain was fixed with 4% paraformaldehyde (PFA). After 48 hours of fixation, the brain tissue was placed into PBS containing 30% sucrose for 72 hours. The sucrose saturated brain tissue was flash frozen in-25 to −35° C. isopentane and stored at −20° C. or proceeded to sectioning.
Magnetic Resonance Imaging (MRI). MRI scanning was performed at 1.5 months and 4.5 months post-blast injury. Briefly, rats were placed under anesthesia with 4% isoflurane before placing it in the MRI scanner. Physiological monitoring was recorded every 10 min (with normal range 300-450 bpm) and rat body temperature was maintained while scanning under anesthesia. […] Labeling efficiency was calculated from a pCASL-encoded fast low-angle shot (FLASH) sequence (TR/TE=250/3.5 ms; in plane resolution 182×182 μm2; slice thickness 1.5 mm; flip angle 80° labeling time 200 ms; transit time 0 ms) image of the carotid artery just below the split and 5 mm above the labeling slice. […]

[4] = tested on: freezing behavior after rmbTBI; assay: Contextual fear conditioning test, chronic delayed sildenafil study; assay type: in vivo, Sprague Dawley rats; settings: 20 mg/kg daily; 5 months post-blast; day 1 acquisition, days 2-4 extinction
Experimental: Animal Procedure. […] MRI (magnetic resonance imaging) was performed at 1.5 and 4.5 months post-blast. Fear conditioning test was performed at 5 months post-blast. At the end of the experiment, rats were euthanized and the brain tissue was collected after transcardial perfusion with PBS (FIG. 24). One hemisphere of the brain was snap frozen with liquid nitrogen for brain capillary isolation while another hemisphere of the brain was fixed with 4% paraformaldehyde (PFA). After 48 hours of fixation, the brain tissue was placed into PBS containing 30% sucrose for 72 hours. The sucrose saturated brain tissue was flash frozen in-25 to −35° C. isopentane and stored at −20° C. or proceeded to sectioning. Fear Conditioning Test. Contextual Fear Conditioning paradigm was performed over 4 days. On the acquisition day, rats were placed in a foot shock chamber with a camera within a sound-attenuating chamber and were allowed to explore freely for 2 min. After 2 min, a total of 6 electric shocks (0.75 mA, 2 s duration) were delivered at intervals of 60 s through the testing chamber floor, with shock delivery controlled by Med associates Inc. VideoFreeze™ Video Fear Conditioning Software. […] Video footage was later scored for freezing behavior using Med associates Inc. VideoFreeze™ Video Fear Conditioning Software. […]

[5] = 5 mg/kg low dose daily to day seven
[6] = 20 mg/kg high dose daily to day seven

CCCc1nn(C)c2c(=O)[nH]c(-c3cc(S(=O)(=O)N4CCN(C)CC4)ccc3OCC)nc12 [sildenafil]
mitochondrial branching [1]: decreased | mitochondrial footprint/density [1]: increased | PGC-1α expression in cortex tissue (PGC-1α; [5]): increased | PGC-1α expression in cortex tissue (PGC-1α; [6]): increased | PGC-1α expression in hippocampal tissue (PGC-1α; 20 mg/kg high dose daily to day seven, rmbTBI): significantly increased | GFAP expression in cortex tissue (GFAP; [5]): increased | GFAP expression in cortex tissue (GFAP; [6]): increased | TOM20 expression / capillary mitochondrial volume (TOM20): significantly increased; also recorded: increased volume | ZO-1 expression in cortical capillaries (ZO-1): increased; also recorded: non-significantly increased | correlation between capillary mitochondrial content (OXPHOS) and tight junction integrity (ZO-1) [2]: significant positive correlation; also recorded: strengthens the correlation | regional cerebral blood flow (CBF) in cortex, hippocampus and amygdala [3]: No significant differences | freezing episodes (fear extinction) [4]: significant time-related decrease
